Results: patent US5130307A, “Aminoesters of rapamycin” (American Home Products Corporation, priority 1991, dated 1992)
In brackets after ≈: the same amount, converted by molar mass.

Tests used:
[1] = tested on: Candida albicans ATCC 38246; assay: antifungal plate test, MIC; assay type: cell-based; settings: ATCC38246
Description: (§1) The following represents the typical procedure used. Compound to be tested was placed on sterile dried 1/4" plate disks, and allowed to dry. Agar plates were seeded with fungi and allowed to solidify. The impregnated disks were placed on the seeded Agar surface and incubated for the time required for the particular culture. Results are expressed in MIC (μg/ml) to inhibit growth.

[2] = tested on: Candida albicans ATCC 38247; assay: antifungal plate test, MIC; assay type: cell-based; settings: ATCC38247
Description: as §1

[3] = tested on: Candida albicans ATCC 10231; assay: antifungal plate test, MIC; assay type: cell-based; settings: ATCC10231
Description: as §1

Candida albicans 3669 = assay: antifungal plate test, MIC; assay type: cell-based
Description: as §1

[4] = tested on: Candida albicans ATCC 38248; assay: antifungal plate test, MIC; assay type: cell-based; settings: ATCC38248
Description: as §1

[5] = tested on: pinch skin graft from male DBA/2 donors transplanted to male BALB/c recipients; assay: survival time of pinch skin graft; assay type: in vivo; settings: intraperitoneally; mean ± SD
Description: Immunosuppressive activity was evaluated in an in vitro standard pharmacological test procedure to measure lymphocyte proliferation (LAF) and in two in vivo standard pharmacological test procedures. The first in vivo procedure was a popliteal lymph node (PLN) test procedure which measured the effect of compounds of this invention on a mixed lymphocyte reaction and the second in vivo procedure evaluated the survival time of a pinch skin graft.
The second in vivo test procedure is designed to determine the survival time of pinch skin graft from male DBA/2 donors transplanted to male BALB/c recipients. The method is adapted from Billingham R.E. and Medawar P.B., J. Exp. Biol. 28:385-402, (1951). Briefly, a pinch skin graft from the donor is grafted on the dorsum of the recipient as a homograft, and an autograft is used as control in the same region. […] Untreated recipients serve as rejection control. The graft is monitored daily and observations are recorded until the graft becomes dry and forms a blackened scab. This is considered as the rejection day. The mean graft survival time (number of days ±S.D.) of the drug treatment group is compared with the control group.

transplant rejection = settings: cited from earlier work

Row | SMILES | MIC [1] [µg/mL] | MIC [2] [µg/mL] | MIC [3] [µg/mL] | MIC (Candida albicans 3669) [µg/mL] | MIC [4] [µg/mL] | Skin Graft (days + SD), mean graft survival time [5] [days] | inhibition of transplant rejection / immunosuppressive effect (in words) (transplant rejection)
1 | CO[C@H]1C[C@@H]2CC[C@@H](C)[C@@](O)(O2)C(=O)C(=O)N2CCCC[C@H]2C(=O)O[C@H]([C@H](C)C[C@@H]2CC[C@@H](OC(=O)CC[C@H](NC(=O)OC(C)(C)C)C(=O)OC(C)(C)C)[C@H](OC)C2)CC(=O)[C@H](C)/C=C(\C)[C@@H](O)[C@@H](OC)C(=O)[C@H](C)C[C@H](C)/C=C/C=C/C=C/1C [Example 10, Rapamycin-42-ester with 5-(1,1-dimethyloxy)-4-[[(1,1-dimethylethoxy)carbonyl]amino]-5-oxopentanoicacid] | > 0.4 | 0.2 (≈ 0.167 µM) | 0.2 (≈ 0.167 µM) | 0.4 (≈ 0.333 µM) | 0.4 (≈ 0.333 µM) | 12.7 ± 1.2 | 
2 | CO[C@H]1C[C@@H]2CC[C@@H](C)[C@@](O)(O2)C(=O)C(=O)N2CCCC[C@H]2C(=O)O[C@H]([C@H](C)C[C@@H]2CC[C@@H](OC(=O)[C@H](CC(=O)OCc3ccccc3)NC(=O)OC(C)(C)C)[C@H](OC)C2)CC(=O)[C@H](C)/C=C(\C)[C@@H](OC(=O)[C@H](CC(=O)OCc2ccccc2)NC(=O)OC(C)(C)C)[C@@H](OC)C(=O)[C@H](C)C[C@H](C)/C=C/C=C/C=C/1C [Example 7, Rapamycin-31,42-diester with 2-[[(1,1-dimethylethoxy)carbonyl]amino]-4-oxo-4-(phenylmethoxy) butanoic acid] |  |  |  |  |  | 7.7 ± 1.5 | 
3 | CO[C@H]1C[C@@H]2CC[C@@H](C)[C@@](O)(O2)C(=O)C(=O)N2CCCC[C@H]2C(=O)O[C@H]([C@H](C)C[C@@H]2CC[C@@H](OC(=O)CN(C)C(=O)OC(C)(C)C)[C@H](OC)C2)CC(=O)[C@H](C)/C=C(\C)[C@@H](O)[C@@H](OC)C(=O)[C@H](C)C[C@H](C)/C=C/C=C/C=C/1C [Example 4, Rapamycin-42-ester with N-[(1,1-dimethylethoxy)carbonyl]-N-methylglycine] | 0.4 (≈ 0.369 µM) | 0.1 (≈ 0.0921 µM) | 0.1 (≈ 0.0921 µM) | 0.2 (≈ 0.184 µM) | 0.1 (≈ 0.0921 µM) | 12.3 ± 0.5 | 
4 | CO[C@H]1C[C@@H]2CC[C@@H](C)[C@@](O)(O2)C(=O)C(=O)N2CCCC[C@H]2C(=O)O[C@H]([C@H](C)C[C@@H]2CC[C@@H](OC(=O)[C@H](CCC(=O)OC(C)(C)C)NC(=O)OC(C)(C)C)[C@H](OC)C2)CC(=O)[C@H](C)/C=C(\C)[C@@H](OC(=O)[C@H](CCC(=O)OC(C)(C)C)NC(=O)OC(C)(C)C)[C@@H](OC)C(=O)[C@H](C)C[C@H](C)/C=C/C=C/C=C/1C [Example 5, Rapamycin-31,42-diester with 5-(1,1-dimethylethoxy)-2-[[(1,1-dimethylethoxy)carbonyl]amino]-5-oxopentanoic acid] | > 0.4 | > 0.4 | > 0.4 | > 0.4 | > 0.4 | 8.8 ± 0.9 | 
5 | CO[C@H]1C[C@@H]2CC[C@@H](C)[C@@](O)(O2)C(=O)C(=O)N2CCCC[C@H]2C(=O)O[C@H]([C@H](C)C[C@@H]2CC[C@@H](OC(=O)[C@H](CCCCNC(=O)OC(C)(C)C)NC(=O)OC(C)(C)C)[C@H](OC)C2)CC(=O)[C@H](C)/C=C(\C)[C@@H](OC(=O)[C@H](CCCCNC(=O)OC(C)(C)C)NC(=O)OC(C)(C)C)[C@@H](OC)C(=O)[C@H](C)C[C@H](C)/C=C/C=C/C=C/1C [Example 13, Rapamycin-31,42-diester with N^α, N^ε bis [(1,1-dimethylethoxy)carbonyl]-L-lysine] | > 0.4 | > 0.4 | > 0.4 | > 0.4 | > 0.4 | 7.0 ± 0.6 | 
6 | C=CC[C@@H]1/C=C(\C)C[C@H](C)C[C@H](OC)[C@H]2O[C@@](O)(C(=O)C(=O)N3CCCC[C@H]3C(=O)O[C@H](/C(C)=C/[C@@H]3CC[C@@H](O)[C@H](OC)C3)[C@H](C)[C@@H](O)CC1=O)[C@H](C)C[C@@H]2OC [FK-506] |  |  |  |  |  |  | effective as immunosuppressive agents
7 | CO[C@H]1C[C@@H]2CC[C@@H](C)[C@@](O)(O2)C(=O)C(=O)N2CCCC[C@H]2C(=O)O[C@H]([C@H](C)C[C@@H]2CC[C@@H](OC(=O)CC[C@H](NC(=O)OC(C)(C)C)C(=O)OC(C)(C)C)[C@H](OC)C2)CC(=O)[C@H](C)/C=C(\C)[C@@H](OC(=O)CC[C@H](NC(=O)OC(C)(C)C)C(=O)OC(C)(C)C)[C@@H](OC)C(=O)[C@H](C)C[C@H](C)/C=C/C=C/C=C/1C [Example 11, Rapamycin-31,42-diester with 5-(1,1-dimethylethoxy)-4-[[(1,1-dimethylethoxy)-carbonyl]-amino]-5-oxopentanoic acid] | > 0.4 | > 0.4 | > 0.4 | > 0.4 | > 0.4 | 10.5 ± 1.3 | 
8 | CO[C@H]1C[C@@H]2CC[C@@H](C)[C@@](O)(O2)C(=O)C(=O)N2CCCC[C@H]2C(=O)O[C@H]([C@H](C)C[C@@H]2CC[C@@H](OC(=O)CNC(=O)CNC(=O)OC(C)(C)C)[C@H](OC)C2)CC(=O)[C@H](C)/C=C(\C)[C@@H](OC(=O)CNC(=O)CNC(=O)OC(C)(C)C)[C@@H](OC)C(=O)[C@H](C)C[C@H](C)/C=C/C=C/C=C/1C [Example 2, Rapamycin-31,42-diester with N-[(1,1-dimethylethoxy)carbonyl]-glycylglycine] | 0.2 (≈ 0.149 µM) | 0.2 (≈ 0.149 µM) | 0.1 (≈ 0.0745 µM) | 0.1 (≈ 0.0745 µM) | 0.2 (≈ 0.149 µM) | 11.5 ± 0.6 | 
9 | CO[C@H]1C[C@@H]2CC[C@@H](C)[C@@](O)(O2)C(=O)C(=O)N2CCCC[C@H]2C(=O)O[C@H]([C@H](C)C[C@@H]2CC[C@@H](OC(=O)C[C@H](NC(=O)OC(C)(C)C)C(=O)OCc3ccccc3)[C@H](OC)C2)CC(=O)[C@H](C)/C=C(\C)[C@@H](O)[C@@H](OC)C(=O)[C@H](C)C[C@H](C)/C=C/C=C/C=C/1C [Example 9, Rapamycin-42-ester with 3-[[(1,1-dimethylethoxy)carbonyl]amino]-4-oxo-4-(phenylmethoxy) butanoic acid] | > 0.4 | 0.4 (≈ 0.328 µM) | 0.4 (≈ 0.328 µM) | > 0.4 | > 0.4 | 10.3 ± 0.8 | 
10 | CO[C@H]1C[C@@H]2CC[C@@H](C)[C@@](O)(O2)C(=O)C(=O)N2CCCC[C@H]2C(=O)O[C@H]([C@H](C)C[C@@H]2CC[C@@H](OC(=O)CNC(=O)CNC(=O)OC(C)(C)C)[C@H](OC)C2)CC(=O)[C@H](C)/C=C(\C)[C@@H](O)[C@@H](OC)C(=O)[C@H](C)C[C@H](C)/C=C/C=C/C=C/1C [Example 1, Rapamycin-42-ester with N-[(1,1-dimethylethoxy)carbonyl]-glycylglycine] | > 0.4 | > 0.4 | > 0.4 | > 0.4 | > 0.4 | 12.0 ± 1.6 | 
11 | CO[C@H]1C[C@@H]2CC[C@@H](C)[C@@](O)(O2)C(=O)C(=O)N2CCCC[C@H]2C(=O)O[C@H]([C@H](C)C[C@@H]2CC[C@@H](OC(=O)[C@H](CCC(=O)OC(C)(C)C)NC(=O)OC(C)(C)C)[C@H](OC)C2)CC(=O)[C@H](C)/C=C(\C)[C@@H](O)[C@@H](OC)C(=O)[C@H](C)C[C@H](C)/C=C/C=C/C=C/1C [Example 6, Rapamycin-42-ester with 5-(1,1-dimethylethoxy)-2-[[(1,1-dimethylethoxy)carbonyl]amino]-5-oxopentanoic acid] | > 0.4 | 0.2 (≈ 0.167 µM) | 0.1 (≈ 0.0834 µM) | > 0.4 | 0.4 (≈ 0.333 µM) | 11.5 ± 3.5 | 
12 | CO[C@H]1C[C@@H]2CC[C@@H](C)[C@@](O)(O2)C(=O)C(=O)N2CCCC[C@H]2C(=O)O[C@H]([C@H](C)C[C@@H]2CC[C@@H](OC(=O)C[C@H](NC(=O)OC(C)(C)C)C(=O)OCc3ccccc3)[C@H](OC)C2)CC(=O)[C@H](C)/C=C(\C)[C@@H](OC(=O)C[C@H](NC(=O)OC(C)(C)C)C(=O)OCc2ccccc2)[C@@H](OC)C(=O)[C@H](C)C[C@H](C)/C=C/C=C/C=C/1C [Example 8, Rapamycin-31,42-diester with 3-[[(1,1-dimethylethoxy)carbonyl]amino]-4-oxo-4-(phenylmethoxy) butanoic acid] | > 0.4 | > 0.4 | > 0.4 | > 0.4 | > 0.4 |  | 
13 | CO[C@H]1C[C@@H]2CC[C@@H](C)[C@@](O)(O2)C(=O)C(=O)N2CCCC[C@H]2C(=O)O[C@H]([C@H](C)C[C@@H]2CC[C@@H](OC(=O)CN(C)C(=O)OC(C)(C)C)[C@H](OC)C2)CC(=O)[C@H](C)/C=C(\C)[C@@H](OC(=O)CN(C)C(=O)OC(C)(C)C)[C@@H](OC)C(=O)[C@H](C)C[C@H](C)/C=C/C=C/C=C/1C [Example 3, Rapamycin-31,42-diester with N-[(1,1-dimethylethoxy)carbonyl]-N-methylglycine] | > 0.4 | > 0.4 | 0.4 (≈ 0.318 µM) | 0.4 (≈ 0.318 µM) | > 0.4 | 9.0 ± 0.9 | 
